Measurements from patent publication US20220220450A1, “FABRICATION OF A BIOMIMETIC PLATFORM SYSTEM AND METHODS OF USE” (Cornell University Center for Technology Licensing, priority 2017, published 2022).

How the values were obtained:
MDA-MB468 cancer cells = assay: Doxorubicin response in 3D-breast component versus 3D-collagen only biomimetic platform system; assay type: cell-based, human; settings: doxorubicin 0-10 μM, FIG. 20C
MDA-MB231 cancer cells [1] = assay: Doxorubicin response of cancer cells in 3D-collagen only biomimetic platform system; assay type: cell-based, human; settings: 0.6% (w/v) collagen, 200,000 MDA-MB231 cells labelled with mCherry; 1-10 μM doxorubicin; FIG. 19B
Method: Images were analyzed by confocal microscopy.

adipocytes = assay: Doxorubicin permeability of 3D-breast component biomimetic platform without cancer cells (BM only); assay type: cell-based, human; settings: 0.6% (w/v) collagen, 15% v/v adipocytes, stromal cells, breast organoids, no cancer cells; increasing doxorubicin concentrations 0-10 μM; FIG. 19C
MDA-MB231 cancer cells [2] = assay: Doxorubicin response and uptake in 3D-breast component biomimetic platform system with cancer cells
Description: Lentivirus transfected human cell lines were selected for use in the biomimetic platform systems disclosed herein. Color selection was randomly assigned to ensure proper differentiation between cell types under fluorescent and confocal microscopy. […] Cancer cell lines, MDA-MB231, MDA-MB468, and HS-578T were transfected with mCherry lentivirus.
Surgical specimens were obtained. In a sterile biosafety hood, breast specimens were homogeneously minced. Excess lipid was carefully removed from tissue by suction, and minced tissue was mixed on a 1:1 ratio with complete Ham's media containing 1 mg/mL of collagenase Type I and 0.01 mg/mL hyaluronidase (for adipocytes and Adipose derived stem cell (ASC)-containing stromal vascular fraction (SVF) isolation) or 1 mg/mL of collagenase type IA and 0.01 mg/mL hyaluronidase (for isolation of breast organoids).
The total amount of 1×M199 media needed for collagen dilution during the neutralization process was reduced by 2504, to allow for the volume needed for reconstitution of cellular components that were added to neutralize collagen. The Collagen platform without breast components was fully diluted by adding 250 microliters of media with desired number of vascular cells (e.g., pericytes), while the biomimetic platform with breast components was diluted by adding 250 μL of MEGM media containing extracted organoids, SVF containing ASCs, and cancer cells. Components were mixed homogeneously into the neutralized collagen, and mature adipocytes were added to the biomimetic platform containing breast stroma at 15% v/v (v/v refers to the volume of the adipocytes+SVF over the total volume of the biocompatible substrate present in the biomimetic platform system described herein).
Biomimetic constructs were fixed in formaldehyde for 30 minutes followed by 3 consecutive 5-minute Phosphate Buffered Saline (PBS) washes. […] Images were analyzed by confocal microscopy. […]
Confocal images for doxorubicin response were analyzed using Imaris™ for visualization of 3D image volume. […]

HS578T cancer cells = assay: Doxorubicin response in 3D-breast component versus 3D-collagen only biomimetic platform system; assay type: cell-based, human; settings: doxorubicin 0-10 μM, FIG. 21A-21D
[3] = 0.6% (w/v) collagen, 15% v/v adipocytes, stromal cells, breast organoids, 200,000 MDA-MB231 cells, 1-10 μM doxorubicin, FIG. 19A

permeability of the biomimetic platform and adipocytes to doxorubicin (signal) (adipocytes): increased signal
doxorubicin uptake (intrinsic fluorescence signal) (MDA-MB231 cancer cells [2]; [3]): uptake was increased
SMILES: COc1cccc2c1C(=O)c1c(O)c3c(c(O)c1C2=O)C[C@@](O)(C(=O)CO)C[C@@H]3O[C@H]1C[C@H](N)[C@H](O)[C@H](C)O1 [doxorubicin]
sensitivity of cancer cells to doxorubicin, 3D-breast component versus 3D-collagen only platform (MDA-MB468 cancer cells): decreased sensitivity
absolute number of cells (mCherry and DAPI signals) (MDA-MB231 cancer cells [1]): decrease in the absolute number of cells
absolute number of cells (mCherry and DAPI signals) (MDA-MB231 cancer cells [2]; [3]): decrease in the absolute number of cells
sensitivity of cancer cells to doxorubicin, 3D-breast component versus 3D-collagen only platform (MDA-MB231 cancer cells [2]; MDA-MB231, doxorubicin 0-10 μM, FIG. 20A-20B): decreased sensitivity
sensitivity of cancer cells to doxorubicin, 3D-breast component versus 3D-collagen only platform (HS578T cancer cells): decreased sensitivity
